Source: the NIST ThermoML archive (doi:10.1021/je060271a)
± gives the expanded uncertainty stated by the source.

Settings: 323.15 K, Liquid, Vibrating tube method

CCCCCCCC(=O)OCC(COC(=O)CCCCCCC)(COC(=O)CCCCCCC)COC(=O)CCCCCCC [pentaerythritol tetraoctanoate]
Settings	mass density [kg/m3]
26616 kPa	957.5 ± 1.2
26661 kPa	957.4 ± 1.2
26699 kPa	957.6 ± 1.2
26737 kPa	957.5 ± 1.2
26782 kPa	957.5 ± 1.2
26820 kPa	957.5 ± 1.2
26866 kPa	957.6 ± 1.2
26904 kPa	957.6 ± 1.2
26944 kPa	957.7 ± 1.2
26985 kPa	957.7 ± 1.2
27024 kPa	957.7 ± 1.2
27070 kPa	957.8 ± 1.2
27109 kPa	957.9 ± 1.2
27407 kPa	957.9 ± 1.2
27548 kPa	957.8 ± 1.2
27601 kPa	958 ± 1.2
27639 kPa	958.1 ± 1.2
27665 kPa	958.1 ± 1.2
27687 kPa	958.2 ± 1.2
27713 kPa	958.1 ± 1.2
27735 kPa	958.1 ± 1.2
27761 kPa	958.2 ± 1.2
27784 kPa	958.1 ± 1.2
27806 kPa	958.3 ± 1.2
27832 kPa	958.2 ± 1.2
27854 kPa	958.3 ± 1.2
27877 kPa	958.2 ± 1.2
27899 kPa	958.2 ± 1.2
27926 kPa	958.2 ± 1.2
27943 kPa	958.3 ± 1.2
27970 kPa	958.3 ± 1.2
28091 kPa	958.4 ± 1.2
28114 kPa	958.4 ± 1.2
28142 kPa	958.4 ± 1.2
28164 kPa	958.3 ± 1.2
28188 kPa	958.3 ± 1.2
28216 kPa	958.4 ± 1.2
28238 kPa	958.4 ± 1.2
28262 kPa	958.4 ± 1.2
28284 kPa	958.5 ± 1.2
28312 kPa	958.6 ± 1.2
28336 kPa	958.5 ± 1.2
28358 kPa	958.6 ± 1.2
28386 kPa	958.5 ± 1.2
28410 kPa	958.5 ± 1.2
28434 kPa	958.4 ± 1.2
28461 kPa	958.5 ± 1.2
28484 kPa	958.5 ± 1.2
28508 kPa	958.6 ± 1.2
28531 kPa	958.6 ± 1.2
28559 kPa	958.6 ± 1.2
28583 kPa	958.6 ± 1.2
28607 kPa	958.7 ± 1.2
28635 kPa	958.6 ± 1.2
28658 kPa	958.7 ± 1.2
28687 kPa	958.9 ± 1.2
28711 kPa	958.7 ± 1.2
28734 kPa	958.8 ± 1.2
28758 kPa	958.6 ± 1.2
28787 kPa	958.8 ± 1.2
28812 kPa	958.8 ± 1.2
28836 kPa	958.8 ± 1.2
28860 kPa	958.9 ± 1.2
28889 kPa	958.7 ± 1.2
28913 kPa	958.9 ± 1.2
28937 kPa	958.8 ± 1.2
28966 kPa	958.9 ± 1.2
28990 kPa	958.9 ± 1.2
29019 kPa	958.9 ± 1.2
29043 kPa	958.8 ± 1.2
29068 kPa	958.9 ± 1.2
29098 kPa	958.9 ± 1.2
29122 kPa	958.9 ± 1.2
29148 kPa	958.9 ± 1.2
29173 kPa	959.1 ± 1.2
29198 kPa	959 ± 1.2
29218 kPa	959 ± 1.2
29248 kPa	959 ± 1.2
29273 kPa	959 ± 1.2
29302 kPa	959.1 ± 1.2
29333 kPa	959.1 ± 1.2
29357 kPa	959.1 ± 1.2
29383 kPa	959.1 ± 1.2
29412 kPa	959.1 ± 1.2
29438 kPa	959.2 ± 1.2
29462 kPa	959.2 ± 1.2
29494 kPa	959.2 ± 1.2
29520 kPa	959.1 ± 1.2
29545 kPa	959.2 ± 1.2
29571 kPa	959.2 ± 1.2
29601 kPa	959.1 ± 1.2
29627 kPa	959.3 ± 1.2
29652 kPa	959.2 ± 1.2
29682 kPa	959.4 ± 1.2
29708 kPa	959.2 ± 1.2
29733 kPa	959.3 ± 1.2
29764 kPa	959.3 ± 1.2
29790 kPa	959.3 ± 1.2
29816 kPa	959.3 ± 1.2
29847 kPa	959.3 ± 1.2
29873 kPa	959.4 ± 1.2
29898 kPa	959.4 ± 1.2
29924 kPa	959.4 ± 1.2
29956 kPa	959.4 ± 1.2
29982 kPa	959.4 ± 1.2
30013 kPa	959.4 ± 1.2
30040 kPa	959.4 ± 1.2
30060 kPa	959.5 ± 1.2
30087 kPa	959.5 ± 1.2
30118 kPa	959.5 ± 1.2
30150 kPa	959.6 ± 1.2
30181 kPa	959.6 ± 1.2
30209 kPa	959.5 ± 1.2
30235 kPa	959.6 ± 1.2
30267 kPa	959.6 ± 1.2
30294 kPa	959.6 ± 1.2
30321 kPa	959.6 ± 1.2
30347 kPa	959.6 ± 1.2
30380 kPa	959.7 ± 1.2
30407 kPa	959.7 ± 1.2
30434 kPa	959.6 ± 1.2
30466 kPa	959.7 ± 1.2
30493 kPa	959.7 ± 1.2
30521 kPa	959.7 ± 1.2
30553 kPa	959.8 ± 1.2
30581 kPa	959.6 ± 1.2
30608 kPa	959.8 ± 1.2
30635 kPa	959.8 ± 1.2
30668 kPa	959.8 ± 1.2
30696 kPa	959.8 ± 1.2
30728 kPa	959.8 ± 1.2
30756 kPa	959.9 ± 1.2
30778 kPa	959.9 ± 1.2
30806 kPa	959.9 ± 1.2
30834 kPa	960 ± 1.2
30862 kPa	959.9 ± 1.2
30906 kPa	960 ± 1.2
30934 kPa	959.8 ± 1.2
30962 kPa	959.9 ± 1.2
30991 kPa	960 ± 1.2
31025 kPa	960 ± 1.2
31053 kPa	959.9 ± 1.2
31086 kPa	960 ± 1.2
31115 kPa	960 ± 1.2
31143 kPa	959.9 ± 1.2
31171 kPa	960.1 ± 1.2
31205 kPa	960.1 ± 1.2
31233 kPa	960.2 ± 1.2
